# Assay results published in patent US20050059641A1, “Compositions and methods for treating and preventing cancer using analogs of vitamin D” (Aphios Corporation, priority 2003, published 2005).
# “Also recorded” adds a separate entry of the source.
# Columns and labels:
# [1] = test system: hormone-refractory PC3 cells; test: microscopic examination of the cells, PC3; type: cell-based, human; conditions: PC3, treated for sixteen (16) hours
# PC-3 cells = test: DNA-fragmentation analysis; type: cell-based, human; conditions: 250 nM, 10 hours
# Protocol: (a) DNA-fragmentation analysis: PC-3 cells (2×10^6) were treated with 250 nM of 1,25(OH)2D3, 25-OH-D3 or 25-OH-D3-3-BE for 10 hours. The cells were harvested and lysed in 0.5 ml lysis buffer (20 mM Tris-HCl, 10 mM EDTA, 0.5% Triton X-100, pH 8.0), and DNA was extracted using phenol-chloroform procedure. The DNA was resuspended in 0.1 ml of 20 mM Tris-HCl, pH 8 and treated with Rnase, followed by electrophoresis on 1.2% agarose gel in TAE. The DNA was visualized under UV light after ethidinium bromide staining.
# [2] = test system: immortalized normal prostate cells (PZ-HPV-7); test: microscopic examination of the cells, PZ-HPV-7; type: cell-based; conditions: PZ-HPV-7, treated for sixteen (16) hours
# [3] = test system: PZ-HPV-7 (papillovirus immortalized normal prostate cells); test: 3H-thymidine incorporation assay, PZ-HPV-7; type: cell-based; conditions: PZ-HPV-7 cells; for effect on proliferation (3H-thymidine incorporation): 10^−6M, 16 hours; for antiproliferative effect (3H-thymidine incorporation): compared to 1,25(OH)2D3
# Protocol: (§1) It is well known that secretory epithelial cells are the main sites for the development of cancers of the breast, prostate and various other organs.
# (§2) The inventors further studied the effect of 1,25(OH)2D3-3-BE on LNCAP cells (most closely resembling human hormone-sensitive prostate cancer) and PZ-HPV-7 cells (immortalized normal prostate cells). The cells were treated with ethanol or 10^−6M of either 1,25(OH)2D3 or 1,25(OH)2D3-3-BE for 16 hours and the effect on proliferation was determined by ^3H-thymidine incorporation assays as described earlier. The viable cell count was determined by Methylene blue assay. The Methylene blue assay is a simple colorimetric method that is widely used to determine the viable cell count.
# (§3) In a study, investigators compared the growth-inhibitory effects of 25-OH-D3-3-BE and 1,25(OH)2D3 in several VDR-positive epithelial cells, e.g. keratinocytes (primary skin cells), MCF-7 cells (breast cancer cells), hormone-sensitive LNCaP and hormone-refractory PC3 cells (prostate cancer cells), and PZ-HPV-7 (papillovirus immortalized normal prostate cells) by using ^3H-thymidine incorporation assays (FIGS. 14-19).
# [4] = test system: keratinocytes (primary cells); test: 3H-thymidine incorporation assay, keratinocytes; type: cell-based, human; conditions: compared to 1,25(OH)2D3
# Excerpt: as §1, §3
# [5] = test system: MCF-7 cells (breast cancer cells); test: 3H-thymidine incorporation assay, MCF-7; type: cell-based; conditions: compared to 1,25(OH)2D3
# Excerpt: as §1
# It is well-established that the biological properties of 1,25(OH)2D3 and its analogs are mediated by their interaction with VDR.
# as §3
# [6] = test system: breast cancer cells (MCF-7); test: microscopic examination of the cells, MCF-7; type: cell-based; conditions: MCF-7, treated for sixteen (16) hours
# [7] = test system: hormone-sensitive LNCaP cells; test: microscopic examination of the cells, LNCaP; type: cell-based, human; conditions: treated for sixteen (16) hours
# [8] = test system: primary cultures of normal human keratinocytes; test: microscopic examination of the cells, keratinocytes; type: cell-based; conditions: treated for sixteen (16) hours
# [9] = test system: PC3 cells (prostate cancer cells); test: 3H-thymidine incorporation assay, PC3; type: cell-based, human; conditions: for antiproliferative effect (3H-thymidine incorporation): PC3 cells, compared to 1,25(OH)2D3
# Excerpt: as §1, §3
# Since 25-OH-D3-3-BE contains an ester bond, its hydrolysis by esterases in growing cells would produce equimolar amounts of bromoacetic acid (BAA) and 25-OH-D3 (see, FIG. 21).
# Furthermore, fetal calf serum (FCS) contains many proteins, including vitamin D-binding protein, which potentially could absorb 25-OH-D3-3-BE before it reacts with VDR. Typically, the assays described herein were carried out in a media containing 10% FCS (after serum-depriving the cells for 15 hours).
# [10] = test system: LNCaP cells (prostate cancer cells); test: 3H-thymidine incorporation assay, LNCaP; type: cell-based, human; conditions: for effect on proliferation (3H-thymidine incorporation): 10^−6M, 16 hours; for dose-dependency of antiproliferative effect: 10^−8-10^−6M; for antiproliferative effect (3H-thymidine incorporation): compared to 1,25(OH)2D3
# Protocol: as §2
# The inventors studied dose-dependency of antiproliferation and cytotoxicity by 1,25(OH)2D3 or 1,25(OH)2D3-3-BE in LNCaP cells. The cells were treated with 10^−8-10^−6M of either 1,25(OH)2D3 or 1,25(OH)2D3-3-BE or ethanol (used as a control). The effect on proliferation and viable cell count were determined by using ^3H-thymidine incorporation and Methylene blue assay respectively. […]
# as §3
# VDR-regulated genes = conditions: higher level sustained for a longer duration at a lower concentration of the analog; cited from earlier work
# vitamin D receptor, VDR = vitamin D receptor, VDR (Homo sapiens, UniProt P11473); conditions: cited from earlier work
# Chain of vitamin D receptor, VDR (P11473 whole entry): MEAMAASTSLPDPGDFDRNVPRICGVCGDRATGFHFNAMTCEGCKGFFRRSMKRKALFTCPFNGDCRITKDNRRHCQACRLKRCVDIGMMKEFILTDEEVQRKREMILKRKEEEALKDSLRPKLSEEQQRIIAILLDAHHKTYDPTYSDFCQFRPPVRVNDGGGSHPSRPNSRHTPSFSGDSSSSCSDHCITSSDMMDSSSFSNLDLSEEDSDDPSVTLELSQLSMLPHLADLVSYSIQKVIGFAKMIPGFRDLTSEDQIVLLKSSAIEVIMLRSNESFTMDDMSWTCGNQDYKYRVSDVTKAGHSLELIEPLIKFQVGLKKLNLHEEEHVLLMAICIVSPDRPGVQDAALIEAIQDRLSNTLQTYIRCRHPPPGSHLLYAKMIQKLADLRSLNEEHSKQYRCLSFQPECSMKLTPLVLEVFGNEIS
# [11] = test system: intestinal cancer Caco-2 cells; conditions: compared with 1,25(OH)2D3; cited from earlier work
# PZ-HPV-7 cells = test: Methylene blue assay, viable cell count, PZ-HPV-7; type: cell-based; conditions: 10^−6M, 16 hours
# LNCaP cells = test: Methylene blue assay, viable cell count, LNCaP; conditions: 10^−6M, 16 hours
# Protocol: as §2
# The inventors studied dose-dependency of antiproliferation and cytotoxicity by 1,25(OH)2D3 or 1,25(OH)2D3-3-BE in LNCaP cells. The cells were treated with 10^−8-10^−6M of either 1,25(OH)2D3 or 1,25(OH)2D3-3-BE or ethanol (used as a control). The effect on proliferation and viable cell count were determined by using ^3H-thymidine incorporation and Methylene blue assay respectively.
# [12] = test system: prostate tumor induced with PC-3 cells; test: in vivo effect in mice bearing prostate tumor induced with PC-3 cells; parameters: species or system male SCID mice; conditions: SCID mice with PC-3 tumor; 25-OH-D3 10 μg or 25-OH-D3-3-BE 13.2 μg (molar equivalent) i.p. in alternate days for two weeks
# Protocol: Sesame oil solutions (200 μl) of either 25-OH-D3 (10 μg) or 25-OH-D3-3-BE (13.2 μg, molar equivalent of 25-OH-D3) or vehicle were administered i.p. in alternate days for two weeks. […] At the end, mice were anesthetized, tumors were removed, and blood was collected. Tumors were embedded in paraffin and sections were made.
# [13] = in vivo toxicity study in CD-1 mice; conditions: CD-1 mice; for Body Weight On Day 0: beginning of the experiment
# Excerpt: Investigators completed an in vivo study to determine the toxicity of 25-OH-D3-3-BE at various doses in CD-1 mice. The animals (average weight ˜30 gms) were maintained with normal chow and water ad libitum. […] At the end of the experiment the animals were lightly anesthetized and blood collected after decapitation for serum calcium-analysis. […] Frequency of administration, body weights at the beginning and at the end of the experiment and serum calcium values are given in the accompanying Table 1.
# VDR = VDR (Homo sapiens, UniProt P11473); conditions: compared with 1,25(OH)2D3; cited from earlier work
# Chain of VDR (P11473 whole entry, species assumed, the tested form may be a part): as the sequence (P11473 whole entry) above
SMILES,microscopic appearance of the cells [1],DNA fragmentation (apoptosis) (PC-3 cells),microscopic appearance of the cells [2],effect on proliferation (3H-thymidine incorporation) [3],antiproliferative effect (3H-thymidine incorporation) [3],antiproliferative effect (3H-thymidine incorporation) [4],antiproliferative effect (3H-thymidine incorporation) [5],microscopic appearance of the cells [6],microscopic appearance of the cells [7],microscopic appearance of the cells [8],antiproliferative effect (3H-thymidine incorporation) [9],effect on proliferation (3H-thymidine incorporation) [10],dose-dependency of antiproliferative effect [10],antiproliferative effect (3H-thymidine incorporation) [10],other results
"C=C1/C(=C\C=C2/CCC[C@]3(C)[C@@H]([C@H](C)CCCC(C)(C)O)CC[C@@H]23)C[C@@H](O)C[C@@H]1O [1,25(OH)2D3, 1-α,25-dihydroxyvitamin D3, reference compound]",appeared normal,no such DNA cleavage was observed,appeared normal,only inhibition of proliferation,dose-dependant antiproliferation,dose-dependant antiproliferation,dose-dependant antiproliferation,appeared normal,appeared normal,appeared normal,dose-dependant antiproliferation,only inhibition of proliferation,most pronounced at 10^−6M,dose-dependant antiproliferation,–
"C=C1/C(=C\C=C2/CCC[C@@]3(C)C2CC[C@@H]3C(C)CCCC(C)(C)O)C[C@@H](OC(=O)CBr)CC1O (stereo partly drawn) [1,25(OH)2D3-3-BE, 1α,25-dihydroxy-vitamin D3-3β-(2)-bromoacetate]",appeared to have undergone apoptosis,–,appeared normal,almost completely inhibited,stronger antiproliferative effect; also recorded: dose-dependant antiproliferation,stronger antiproliferative effect; also recorded: dose-dependant antiproliferation,stronger antiproliferative effect; also recorded: dose-dependant antiproliferation,appeared normal,appeared to have undergone apoptosis,appeared normal,stronger antiproliferative effect; also recorded: dose-dependant antiproliferation,almost completely inhibited,most pronounced at 10^−6M,stronger antiproliferative effect; also recorded: dose-dependant antiproliferation,"transcription of VDR-regulated genes (VDR-regulated genes): increased transcription; speed of cross-linking to VDR (vitamin D receptor, VDR): extremely rapid; calcemic index [11]: lower calcemic index than 1,25(OH)2D3; viable cell count diminished by (PZ-HPV-7 cells): approximately 15%; viable cell count diminished by (LNCaP cells): approximately 60%; decrease of proliferation compared with 1,25(OH)2D3 ([10]; dose levels of 10^−6 and 10^−7M): much stronger in decreasing the proliferation than 1,25(OH)2D3"
"C=C1CC[C@H](O)C/C1=C/C=C1\CCC[C@]2(C)[C@@H]([C@H](C)CCCC(C)(C)O)CC[C@@H]12 [25-OH-D3, 25-hydroxyvitamin D3, reference compound]",–,no such DNA cleavage was observed,–,–,–,–,–,–,–,–,–,–,–,–,"condition of the mice at the end of treatment [12]: very sick, and most of them died; Body Weight on Day 12 ([13]; 3.3 μg/kg intraperitoneally): 33.5 ± 1 grams; Body Weight On Day 0 ([13]; 3.3 μg/kg intraperitoneally): 31.5 ± 1.56 grams; Body Weight on Day 12 ([13]; 33 μg/kg intraperitoneally): 30.66 ± 2 grams; Body Weight On Day 0 ([13]; 33 μg/kg intraperitoneally): 28.9 ± 2 grams; VDR-binding ability (VDR): significantly low VDR-binding ability"
"O=C(CBr)OCc1ccccc1 [benzylbomacetate, benzylbormoacetate, reference compound]",–,–,–,–,–,–,no effect,–,–,–,–,–,–,no effect,–
"O=C(O)CBr [bromoacetic acid, reference compound]",–,–,–,–,–,–,no effect,–,–,–,–,–,–,no effect,"growth-inhibitory effect (3H-thymidine incorporation) ([9]; PC-3 cells, 10^−6M): not antiproliferative"
